{"source": "patent US10500222B2", "about": "“Compositions and methods relating to treatment of infection” (Wayne State University, priority 2015, dated 2019)", "assay_type_in_all_cases": "in vivo, C57BL/6 (B6) mice", "key": {"P. aeruginosa KEI 1025": {"tested_on": "P. aeruginosa KEI 1025", "assay": "Quantification of viable bacteria (plate count), KEI 1025 infection", "conditions": "pretreatment subconj. + IP, vs PBS", "protocol": "(§1) The left eyes of B6 mice (n=5/group/time) were injected with 5 μl of 2 μg/μl glycyrrhizin (GLY) (Sigma-Aldrich, St. Louis, Mo.) or PBS (control) subconjunctivally, one day before infection. Similar treatment was done using carbenoxolone (CBX) (Sigma-Aldrich, St. Louis, Mo.). All mice were injected intraperitoneally (IP) at 1 and 3 days p.i. with 100 μl of GLY (2 μg/μl) or CBX (1 μg/μl). PBS served as control for all these experiments. In a separate similar experiment mice were treated one day before infection with GLY subconjunctivally and injected intraperitoneally (i.p.) with GLY plus recombinant (r) HMGB1 (1 μg/100 μl) or GLY plus PBS. IP injections were similarly given at 1 and 3 days p.i. In an additional experiment, KEI 1025 infected B6 mice were treated with 5 μl of 2 μg/μl GLY subconjunctivally at 6 hours p.i. and injected intraperitoneally at 1 and 3 days p.i. with 100 μl of GLY (2 μg/μl).\nMice were sacrificed at 3 and 5 days p.i. and KEI 1025 or ATCC strain 19660 infected corneas from GLY, CBX or PBS (or GLY+/−rHMGB1) treated B6 mice were harvested (n=5/group/time). Each cornea was homogenized in 1 ml of sterile saline (0.85% NaCl, pH 7.4) containing 0.25% BSA. A 100 μl of the corneal homogenate was serially diluted (1:10) in sterile saline containing 0.25% BSA. Selected dilutions were plated in triplicate on selective culture medium (Difco™ Pseudomonas Isolation Agar, BD Biosciences, Inc., Franklin Lakes, N.J.). Plates were incubated overnight at 37° C. and viable bacteria manually counted. Results are reported as log10 CFU/cornea±SEM."}, "[1]": {"tested_on": "P. aeruginosa KEI 1025 infected cornea", "assay": "Ocular response to bacterial infection (clinical score, slit lamp), KEI 1025 keratitis", "conditions": "subconj. 1 day before infection + IP 1 and 3 days p.i., vs PBS", "from_the_text": "P. aeruginosa strains, KEI 1025, a non-cytotoxic clinical isolate strain expressing exoT and exoS, and not expressing exoU, described in Estrellas P S, Jr., et al., Curr Eye Res. 2000; 20:157-165 (obtained from Kresge Eye Institute, Detroit, Mich.), and a cytotoxic strain, 19660, expressing exoU, described in Finck-Barbancon V, et al., Mol Microbiol. 1997; 25:547-557; and Fleiszig S M, et al., Infect Immun. 1997; 65:579-586 (obtained from American Type Culture Collection, ATCC, Manassas, Va.), were grown in peptone tryptic soy broth (PTSB) medium in a rotary shaker water bath at 37° C. and 150 rpm for 18 h to an optical density (measured at 540 nm) between 1.3-1.8. Bacterial cultures were pelleted by centrifugation at 5,500 g for 10 min. Pellets were washed once with sterile saline, re-centrifuged, re-suspended and diluted in sterile saline. Anesthetized (using anhydrous ethyl ether) mice were placed beneath a stereoscopic microscope at 40× magnification. The left cornea was scarified with three 1-mm incisions using a sterile 25^5/8 gauge needle. The wounded corneal surface was topically treated with 5 μl containing 1×10^7 CFU/μl (KEI 1025) or 1×10^6 CFU/μl (ATCC strain 19660) of the P. aeruginosa suspension.\nAn established corneal disease grading scale, described in detail in Hazlett L D, et al., Invest Ophthalmol Vis Sci. 1987; 28:1978-1985, was used to assign a clinical score value to each infected eye at 1, 3 and 5 days post infection (p.i.). Clinical scores were designated as: 0=clear or slight opacity, partially or fully covering the pupil; +1=slight opacity, fully covering the anterior segment; +2=dense opacity, partially or fully covering the pupil; +3=dense opacity, covering the entire anterior segment; and +4=corneal perforation or phthisis. Clinical scores were used to statistically compare disease severity and were accompanied by photographs using a slit lamp (5 days p.i.) to confirm and illustrate the response.\nas §1"}, "[2]": {"tested_on": "mRNA levels in P. aeruginosa KEI 1025 infected cornea", "assay": "Real time RT-PCR of cornea, KEI 1025 infection", "protocol": "as §1\nKEI 1025 or ATCC strain 19660 infected GLY or PBS treated mice were sacrificed at 5 days p.i. and the normal, contralateral (uninfected) and infected cornea was harvested. For each cornea, total RNA was isolated (RNA STAT-60™; Tel-Test, Friendswood, Tex.) according to the manufacturer's instructions. Upon spectrophotometric quantification at 260 nm, 1 μg of each RNA sample was reverse transcribed using Moloney-murine leukemia virus (M-MLV) reverse transcriptase (Invitrogen, Carlsbad, Calif.) to produce a cDNA template for the PCR reaction. cDNA products were diluted 1:25 with diethylpyrocarbonate (DEPC)-treated water. A 2 μl aliquot of diluted cDNA was used for the real-time RT-PCR reaction with Real-Time SYBR® Green/Fluorescein PCR Master Mix (Bio-Rad) and primer concentrations of 10 μM (total 10 μl reaction volume). After a pre-programmed hot start cycle (3 min at 95° C.), the parameters used for PCR amplification were: 15 sec at 95° C. and 60 sec at 60° C. with the cycles repeated 45 times. Optimal conditions for PCR amplification of cDNA were established using routine methods. mRNA levels of HMGB1, RAGE, IL-1β, TLR2, TLR4, CXCL2, TNF-α, NLR family pyrin domain containing 3 (NLRP3), NLR family CARD domain containing 4 (NLRC4), IL-12, TGF-β, IL-10, single Ig IL-1-related receptor (SIGIRR) and interleukin 1 receptor-like 1 (ST2) were tested by real-time RT-PCR (CFX Connect™ Real-Time PCR Detection System; Bio-Rad, Richmond, Calif.). The fold differences in gene expression were calculated after normalization to β-actin and expressed as the relative mRNA concentration+SEM."}, "[3]": {"conditions": "KEI 1025, pretreatment subconj. + IP, infected cornea 5 days p.i., vs PBS"}}, "note": "Entries after “also recorded” stand apart in the source; their conditions may differ.", "data": [{"smiles": "CC1(C)[C@@H](OC(=O)CCC(=O)O)CC[C@]2(C)[C@H]3C(=O)C=C4[C@@H]5C[C@@](C)(C(=O)O)CC[C@]5(C)CC[C@@]4(C)[C@]3(C)CC[C@@H]12", "note": "[CBX, carbenoxolone]", "values": [{"measurement": "bacterial load in the corneas (plate count)", "setting": "P. aeruginosa KEI 1025; 3 days p.i.", "value": "not at 3 days p.i."}, {"measurement": "bacterial load in the corneas (plate count)", "setting": "P. aeruginosa KEI 1025; 5 days p.i.", "value": "significantly reduced"}, {"measurement": "clinical scores", "setting": "[1]; 3 days p.i.", "value": "statistically significant reduction in disease scores; also recorded: only reduced at 3 days"}, {"measurement": "clinical scores", "setting": "[1]; 5 days p.i.", "value": "not at 5 (p=0.2) days p.i."}, {"measurement": "opacity, slit lamp photographs", "setting": "[1]; 5 days p.i.", "value": "reduced opacity"}, {"measurement": "CXCL2 mRNA levels", "setting": "[2]; [3]", "value": "reduced"}, {"measurement": "HMGB1 mRNA levels", "setting": "[2]; [3]", "value": "no difference"}, {"measurement": "IL-1β mRNA levels", "setting": "[2]; [3]", "value": "significantly reduced"}, {"measurement": "IL-12 mRNA levels", "setting": "[2]; [3]", "value": "only GLY reduced"}, {"measurement": "NLRC4 mRNA levels", "setting": "[2]; [3]", "value": "only GLY reduced"}, {"measurement": "NLRP3 mRNA levels", "setting": "[2]; [3]", "value": "reduced"}, {"measurement": "SIGIRR mRNA levels", "setting": "[2]; [3]", "value": "increased modestly"}, {"measurement": "TGF-β mRNA levels", "setting": "[2]; [3]", "value": "reduced"}, {"measurement": "TLR2 mRNA levels", "setting": "[2]; [3]", "value": "did not differ from PBS controls"}, {"measurement": "TLR4 mRNA", "setting": "[2]; [3]", "value": "reduced"}, {"measurement": "TNF-α mRNA levels", "setting": "[2]; [3]", "value": "reduced by both GLY and CBX, but only GLY (p<0.01) was significant"}, {"measurement": "mRNA levels of the other molecules tested", "setting": "[2]; normal (uninfected) corneas, among PBS, CBX, GLY groups", "value": "no differences"}]}]}
